Assay [1] has as its system peanut. The note with it: increased from 3.9% with no antioxidant; cited from earlier work.
The test system of assay [2] is tobacco protoplast cells. The experiment in a line: Fullerene-enhanced electroporation, GFP expression. It is filed as cell-based, Nicotiana tabacum. Conditions: tobacco protoplasts, GFP DNA, fluorescence microscope; without fullerene no GFP expression. As to the method: One embodiment of the invention is called fullerene-enhanced electroporation. The method comprises (1) mixing fullerene derivative solution with the DNA of interest, (2) addition of fullerene derivative/DNA solution to plant cells or plant protoplasts, and (3) treatment of the mixture in a Gene Pulser cuvette or similar electroporation apparatus for a few minutes. Suspension was then incubated for 2-3 hours or overnight to allow DNA transfer and gene expression to take place. […] On the left is the light microscope picture showing tobacco protoplast cells after electroporation. […] Experiments to test the fullerene nanoparticles for transformation ability used tobacco protoplasts for transient assays. Sterile suspension cultures (5% w/v) of tobacco (Nicotiana tabacum) were grown in MS basal salts media. Suspension cells were incubated in enzyme solution (0.6 M mannitol, 10 mM MES, 1% Cellulase, 0.2% pectinase) at pH 5.7 in the dark, at 24° C. overnight. After incubation, protoplasts were passed through […] nylon mesh, washed and protoplasts pelleted by centrifugation. Protoplasts were resuspended in the appropriate media required for transformation studies. Electroporation is the process where cells are mixed with a DNA construct and then briefly exposed to pulses of high voltage. […]

Assay [3] concerns CAMBIA 1302 plasmid. Description: DNA binding by agarose gel electrophoresis (gel mobility). Conditions: 50 ng plasmid, 100-300 ng fullerene compound, preincubated 15-30 minutes. The method, then:
Each tube was allowed to bind for 15-30 minutes and then place on an agarose gel. […] After running the gel, the bands were visualized using post-staining with commercial SBER SAFE™ 10000× stain.
DNA binding was measured at different fullerene nanoparticle/DNA ratios. The DNA-binding ability of the fullerene test compounds 1, 2, 4, and 6 was examined by direct DNA binding and agarose gel electrophoresis. […] In each case, 50 ng plasmid DNA was preincubated for 30 minutes with 100-300 nG fullerene compound (FIG. 8). The DNA binding titration of plasmid pCAMBIA 1302 with compound 6 was carried with 50 nG pCAMBIA 1302 and various concentrations (93-3000 nG per 10 microL). Results shown in FIG. 8 indicate optimal binding at a concentration of ˜5-6 equivalents fullerene per DNA. FIG. 8 Lane 1: 50 ng of DNA Plasmid DNA only, Lane 2: 50 ng of DNA Plasmid DNA+3000 ng compound 6 (50 equiv), Lane 3: 50 ng of DNA Plasmid DNA+1500 ng compound 6 (25 equiv), Lane 4: 50 ng of DNA Plasmid DNA+750 ng compound 6 (12 equiv), Lane 5: 50 ng of DNA Plasmid DNA+375 ng compound 6 (6 equiv), Lane 6: 50 ng of DNA Plasmid DNA+187 ng compound 6 (3 equiv), Lane 7: 50 ng of DNA Plasmid DNA+93 ng compound 6 (1.5 equiv). Compound 6 stock solution (0.3 mg/mL) was diluted with TE buffer and 10 microL each fullerene dilution was reincubated with plasmid for […] to loading on the gel.

“Also recorded” adds a separate entry of the source.

For `N[C@@H](CCC(=O)N[C@@H](CS)C(=O)NCC(=O)O)C(=O)O` [glutathione], the Transformation frequencies in assay [1] was 14.6%. With tocopherol, in assay [1], the Transformation frequencies is reported as 10.3%. As to polyhydroxy-C60 [Compound 1], the “GFP expression after electroporation” value in assay [2] is “gene insertion and GFP expression”. Moreover, the “DNA binding (change in gel mobility)” value in assay [3] is listed as “no DNA binding effect; also recorded: no binding to DNA”. In the case of `O=[Se](O)O` [selenite], the Transformation frequencies in assay [1] is given as 12.4%. Take FC4S [Compound 2]: in assay [3], the “DNA binding (change in gel mobility)” value is listed as “no DNA binding effect; also recorded: no binding to DNA”.

The record behind these values is patent US8614366B2, “Methods for genetic plant transformation using water-soluble fullerene derivatives” (priority 2009, dated 2013).
